Data published in patent US20190075791A1, “ANTIMICROBIAL SURFACE COATING MATERIAL” (YEDITEPE UNIVERSITESI, priority 2015, published 2019).

Legend:
Assay in all cases: Modified disk diffusion method (chemicals)
Assay type in all cases: cell-based
Escherichia coli = details: disc diffusion on Nutrient Agar, 24 hours at 36±1 °C, PC = ofloxacin 10 μg/disc
Description: (§1) Modified disk diffusion method: Standard NCCLS disc diffusion method was used upon being modified in order to determine the antimicrobial activity of CG, T and ZP on each microorganism that is being tested. The 100 μl solution including 10^8 cfu/ml bacteria, 10^6 cfu/ml yeast and 10^4 spor/ml fungi was prepared with fresh cultures and inoculated with spreading method on Nutrient Agar (NA), Sabouraud Dextrose Agar (SDA) and Potato Dextrose Agar (PDA), respectively. 20 μl of sterile water was dropped on the empty discs, and was immersed into powder triclosan. 20 μl of chlorhexidine gluconate and zinc pyrithione were drawn and impregnated to the empty discs and placed on the inoculated petri dishes. Empty discs with 20 μl drop of sterile water were used as negative control. Ofloxacin (10 μg/disc) and nystatin (30 μg/disc) were used as positive control for bacteria and fungi, respectively. The petri dishes, which were inoculated and on which modified disc diffusion method was applied, were incubated for 24 hours for bacteria and 48 hours for yeasts at 36±1 ° C., and for 72 hours for fungi at 25±1 ° C. […] All tests were repeated at least twice.

Fusarium oxysporum = details: disc diffusion on Potato Dextrose Agar, 72 hours at 25±1 °C, PC = nystatin 30 μg/disc
Description: as §1

Candida glabrata = details: disc diffusion on Sabouraud Dextrose Agar, 48 hours at 36±1 °C, PC = nystatin 30 μg/disc
Description: as §1

[1] = test system: Methicillin-resistant Staphylococcus aureus (MRSA); details: disc diffusion on Nutrient Agar, 24 hours at 36±1 °C, PC = ofloxacin 10 μg/disc
Description: as §1

Penicillium spp. = details: disc diffusion on Potato Dextrose Agar, 72 hours at 25±1 °C, PC = nystatin 30 μg/disc
Description: as §1

Botrytis cinerea = details: disc diffusion on Potato Dextrose Agar, 72 hours at 25±1 °C, PC = nystatin 30 μg/disc
Description: as §1

[2] = test system: Vancomycin-resistant Enterococcus (VRE); details: disc diffusion on Nutrient Agar, 24 hours at 36±1 °C, PC = ofloxacin 10 μg/disc
Description: as §1

Staphylococcus aureus = details: disc diffusion on Nutrient Agar, 24 hours at 36±1 °C, PC = ofloxacin 10 μg/disc
Description: as §1

Candida albicans = details: disc diffusion on Sabouraud Dextrose Agar, 48 hours at 36±1 °C, PC = nystatin 30 μg/disc
Description: as §1

Pseudomonas aeruginosa = details: disc diffusion on Nutrient Agar, 24 hours at 36±1 °C, PC = ofloxacin 10 μg/disc
Description: as §1

Aspergillus spp. = details: disc diffusion on Potato Dextrose Agar, 72 hours at 25±1 °C, PC = nystatin 30 μg/disc
Description: as §1

N=C(NCCCCCCNC(=N)NC(=N)Nc1ccc(Cl)cc1)NC(=N)Nc1ccc(Cl)cc1.O=C(O)[C@H](O)[C@@H](O)[C@H](O)[C@H](O)CO.O=C(O)[C@H](O)[C@@H](O)[C@H](O)[C@H](O)CO [CG, Chlorhexidine gluconate]
Antimicrobial activity (inhibition zone) (Escherichia coli): + | Antimicrobial activity (inhibition zone) (Fusarium oxysporum): + | Antimicrobial activity (inhibition zone) (Candida glabrata): + | Antimicrobial activity (inhibition zone) [1]: + | Antimicrobial activity (inhibition zone) (Penicillium spp.): + | Antimicrobial activity (inhibition zone) (Botrytis cinerea): + | Antimicrobial activity (inhibition zone) [2]: + | Antimicrobial activity (inhibition zone) (Staphylococcus aureus): + | Antimicrobial activity (inhibition zone) (Candida albicans): + | Antimicrobial activity (inhibition zone) (Pseudomonas aeruginosa): + | Antimicrobial activity (inhibition zone) (Aspergillus spp.): +

Zinc Pyrithione [ZP]
Antimicrobial activity (inhibition zone) (Escherichia coli): + | Antimicrobial activity (inhibition zone) (Fusarium oxysporum): + | Antimicrobial activity (inhibition zone) (Candida glabrata): + | Antimicrobial activity (inhibition zone) [1]: + | Antimicrobial activity (inhibition zone) (Penicillium spp.): + | Antimicrobial activity (inhibition zone) (Botrytis cinerea): + | Antimicrobial activity (inhibition zone) [2]: + | Antimicrobial activity (inhibition zone) (Staphylococcus aureus): + | Antimicrobial activity (inhibition zone) (Candida albicans): + | Antimicrobial activity (inhibition zone) (Pseudomonas aeruginosa): + | Antimicrobial activity (inhibition zone) (Aspergillus spp.): +

Oc1cc(Cl)ccc1Oc1ccc(Cl)cc1Cl [T, Triclosan]
Antimicrobial activity (inhibition zone) (Escherichia coli): + | Antimicrobial activity (inhibition zone) (Fusarium oxysporum): − | Antimicrobial activity (inhibition zone) (Candida glabrata): − | Antimicrobial activity (inhibition zone) [1]: + | Antimicrobial activity (inhibition zone) (Penicillium spp.): − | Antimicrobial activity (inhibition zone) (Botrytis cinerea): − | Antimicrobial activity (inhibition zone) [2]: + | Antimicrobial activity (inhibition zone) (Staphylococcus aureus): + | Antimicrobial activity (inhibition zone) (Candida albicans): − | Antimicrobial activity (inhibition zone) (Pseudomonas aeruginosa): + | Antimicrobial activity (inhibition zone) (Aspergillus spp.): −
